Data taken from US9102656B2, “Use of rosuvastatin lactols as medicaments” (RedX Pharma Limited, priority 2009, dated 2015).
Where a name gives a salt, the structure may show the parent alone.

Assays:
HMG-CoA reductase = HMG-CoA reductase (Homo sapiens (Human), UniProt P04035); experiment: HMG-CoA Reductase assay kit (spectrophotometric NADPH absorbance at 340 nm); type: biochemical; details: inhibitor concentrations varied from 0 nM to 50 nM; 37° C.
Experimental: All assays were carried out in a reaction buffer containing […] KxPO4 at pH 7.2, 1 mM EDTA, 500 mM KCl and 1 mg/ml BSA. The concentrations of NADPH and HMG-CoA were both 200 μM. […] Absorbance readings were then taken every 20 seconds for 600 seconds. […] After these were identified, assays were carried out varying their concentrations from 0 nM to 50 nM allowing IC50 values to be calculated.
Add a buffer to all samples. • b. […] Add the reconstituted NADPH to all samples. • d. Add Substrate Solution (HMG-CoA) to all samples. • e. […] Mix the samples thoroughly. 3. The kinetics programme was started immediately.

plasma triglycerides = experiment: Rat plasma triglyceride levels after 3 or 5 days BID oral treatment; type: in vivo; details: male SD rats, 25 mg/kg po BID for 3 or 5 days, plasma 16 hours after last dose
Experimental: The measurement of the change in rat plasma triglyceride levels is considered to be a fair test for determining HMG CoA reductase activity.
112 male SD rats (Harlan) were housed in groups of 6 under a 12 h light dark cycle (lights on 07.00 h) with free access to food (normal laboratory chow) and water. Animals between 148-183 g were allocated to treatment groups of 8 balanced by body weight and treatments were balanced across cages.
Four rosuvastatin analogues were made up in 10% PEG300/10% cremophor/80% methyl cellulose (0.5%) (vehicle 1) to make a 5 mg/mL solution. The rosuvastatin compounds used were:
Rosuvastatin Lactol n-propyl acetal (diastereomeric ratio 2/1) (BPL001); Rosuvastatin lactol n-propyl acetal nicotinoyl ester (diastereomeric ratio 2/1) (BPL002); Rosuvastatin lactol iso-propyl acetal benzyl ether (BPL003); and Rosuvastatin lactol methyl acetal nicotinoyl ester (diastereomeric ratio 2/1) (BPL004).
Rosuvastatin was formulated in 0.5% Tween in 0.5% methyl cellulose (vehicle 2) at 5 mg/kg as a suspension.
Rats were orally dosed with vehicle 1, one of the four rosuvastatin analogues in vehicle 1 (25 mg/kg), vehicle 2 or rosuvastatin in vehicle 2 (25 mg/kg po), BID for 3 or 5 days. […]
Data for each time-point were analysed by 1-way ANOVA and post-hoc Dunnett's test.

Sequence of HMG-CoA reductase (P04035 340-888): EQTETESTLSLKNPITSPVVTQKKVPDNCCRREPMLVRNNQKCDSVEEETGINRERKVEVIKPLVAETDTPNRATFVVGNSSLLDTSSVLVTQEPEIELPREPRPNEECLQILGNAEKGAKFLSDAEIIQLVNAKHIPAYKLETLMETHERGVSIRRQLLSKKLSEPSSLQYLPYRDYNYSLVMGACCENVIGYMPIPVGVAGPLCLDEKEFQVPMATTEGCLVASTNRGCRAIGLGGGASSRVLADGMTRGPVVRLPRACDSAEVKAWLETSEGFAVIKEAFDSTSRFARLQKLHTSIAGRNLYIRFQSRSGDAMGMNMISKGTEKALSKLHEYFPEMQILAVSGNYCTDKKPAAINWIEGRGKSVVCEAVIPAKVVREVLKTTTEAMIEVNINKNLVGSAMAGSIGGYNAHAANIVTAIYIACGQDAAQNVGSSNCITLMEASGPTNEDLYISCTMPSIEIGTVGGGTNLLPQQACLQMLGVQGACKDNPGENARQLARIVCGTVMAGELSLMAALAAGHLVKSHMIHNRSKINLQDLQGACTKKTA

IC50 (HMG-CoA reductase) [nM] | SMILES | effect on plasma triglycerides (plasma triglycerides)
< 1 | COC1C[C@H](OC(=O)c2cccnc2)C[C@@H](/C=C/c2c(-c3ccc(F)cc3)nc(N(C)S(C)(=O)=O)nc2C(C)C)O1 (stereo partly drawn) | –
4 | CC(C)c1nc(N(C)S(C)(=O)=O)nc(-c2ccc(F)cc2)c1/C=C/[C@@H](O)C[C@@H](O)CC(=O)O [Rosuvastatin calcium salt] | –
– | CC(C)c1nc(N(C)S(C)(=O)=O)nc(-c2ccc(F)cc2)c1C=CC(O)CC(O)CC(=O)O (stereo not drawn) [rosuvastatin, 7-[4-(4-fluorophenyl)-6-(1-methylethyl)-2-(methyl-methylsulfonyl-amino)-pyrimidin-5-yl]-3,5-dihydroxy-hept-6-enoic acid] | marked reduction in plasma triglycerides
